pEC50, pIC50: −log10 of the molar value.

Experimental findings from ChEMBL document CHEMBL4392845, “Structure-activity relationship study of estrogen receptor down-regulators with a diphenylmethane skeleton” (Bioorg Med Chem, 2019) are described below.

For assay [1], the target named is T1, Estrogen receptor (Homo sapiens, UniProt P03372).
T1 sequence (P03372 whole entry): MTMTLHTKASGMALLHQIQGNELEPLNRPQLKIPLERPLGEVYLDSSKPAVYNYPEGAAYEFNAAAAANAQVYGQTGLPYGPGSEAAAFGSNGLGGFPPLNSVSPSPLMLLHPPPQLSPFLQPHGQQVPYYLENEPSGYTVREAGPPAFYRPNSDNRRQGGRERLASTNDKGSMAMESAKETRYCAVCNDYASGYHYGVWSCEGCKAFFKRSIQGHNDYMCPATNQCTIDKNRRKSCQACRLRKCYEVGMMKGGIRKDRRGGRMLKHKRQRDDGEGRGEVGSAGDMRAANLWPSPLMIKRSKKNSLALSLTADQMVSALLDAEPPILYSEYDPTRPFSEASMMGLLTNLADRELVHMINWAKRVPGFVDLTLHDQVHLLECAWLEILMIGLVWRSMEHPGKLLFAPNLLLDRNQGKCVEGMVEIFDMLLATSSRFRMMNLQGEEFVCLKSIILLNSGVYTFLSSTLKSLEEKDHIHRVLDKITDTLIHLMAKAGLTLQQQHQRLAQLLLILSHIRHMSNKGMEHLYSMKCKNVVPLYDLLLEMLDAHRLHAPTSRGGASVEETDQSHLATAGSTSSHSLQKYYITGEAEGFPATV
Description: Selective estrogen receptor down-regulator activity at FLAG-tagged ERalpha (unknown origin) expressed in HEK293 cells assessed as induction of ERalpha degradation by luciferase reporter gene assay

Assay [2] addresses T1, Estrogen receptor. This is another data set of the same source.
Description: Binding affinity to GST-tagged human ER alpha ligand-binding domain by TR-FRET assay
The target in assay [3] is T1, Estrogen receptor. The source holds these as a separate data set.
Description: Antagonist activity at FLAG-tagged ERalpha (unknown origin) expressed in HEK293 cells assessed as reduction in E2-induced ER-alpha-mediated transcriptional activity by luciferase reporter gene assay
Assay [4] addresses T1, Estrogen receptor. Kind of assay: Agonist activity at FLAG-tagged ERalpha (unknown origin) expressed in HEK293 cells assessed as induction of ER-alpha-mediated transcriptional activity by luciferase reporter gene assay. Type of assay: cell-based.
Assay [5] addresses T1, Estrogen receptor. Conditions: hek293; call rule not given here.

As usually defined, the pEC50 is the EC50 on a negative log10 scale, so that one unit is a factor of ten. In general, pIC50 refers to the IC50 on a negative log10 scale, so that one unit is a factor of ten. Lower therefore signals a large IC50. At Estrogen receptor [1], `Oc1ccc(Cc2ccc(O)cc2)cc1` showed a pEC50 of less than 5.00. For the same compound, the pIC50 at Estrogen receptor [2] is 5.85; at Estrogen receptor [3], less than 5.00.
For `CCC(=C(c1ccc(O)cc1)c1ccc(O)cc1)c1ccccc1`, on Estrogen receptor [1], the pEC50 is 9.00. For the same compound, the figures for the negative logarithm of the IC50 (pIC50) on Estrogen receptor [2] and on Estrogen receptor [3] were 10.22 and 8.48, respectively.
Turning to `CCC(CC)(c1ccc(O)cc1)c1ccc(O)cc1`, the pEC50 at Estrogen receptor [1] is 6.74. The compound further gave a pIC50 against Estrogen receptor [2] of 7.62.
`Cc1cc(Cc2ccc(O)c(C)c2)ccc1O`: the pEC50 at Estrogen receptor [4] and on Estrogen receptor [1] was less than 5.00 in each case. Moreover, the pIC50 on Estrogen receptor [2] was 6.10; against Estrogen receptor [3], less than 5.00.
`CCC(CC)(c1ccc(O)c(C)c1)c1ccc(O)c(C)c1` gave a pEC50 at Estrogen receptor [1] of 7.55. Further, at Estrogen receptor [2], the pIC50 is 8.85.
Consider `CCCC(CCC)(c1ccc(O)c(C)c1)c1ccc(O)c(C)c1`, for which the negative-log EC50 (pEC50) at Estrogen receptor [1] was 8.00. This compound gave a pIC50 at Estrogen receptor [2] of 8.49 to 8.89.
As to `CCCCC(CCCC)(c1ccc(O)c(C)c1)c1ccc(O)c(C)c1`, on Estrogen receptor [1], the pEC50 was 7.06. Also, the pIC50 on Estrogen receptor [2] was 7.59.
Consider `CCc1cc(C(CC)(CC)c2ccc(O)c(CC)c2)ccc1O`, for which the pEC50 on Estrogen receptor [1] was 6.14. Moreover, the pIC50 against Estrogen receptor [2] was 6.55.
Regarding `CCCC(CCC)(c1ccc(O)cc1)c1ccc(O)cc1`, the pEC50 on Estrogen receptor [1] is 7.19. The same compound had a pIC50 on Estrogen receptor [2] of 8.23.
On Estrogen receptor [1], `CCCCC(CCCC)(c1ccc(O)cc1)c1ccc(O)cc1` gave a pEC50 of 6.22. The pIC50 on Estrogen receptor [2] is 7.00.
`CCCC(CCC)(c1ccc(O)c(CC)c1)c1ccc(O)c(CC)c1`: the negative-log EC50 (pEC50) on Estrogen receptor [1] was less than 5.00. On Estrogen receptor [2], this compound had a pIC50 of 5.89.
Turning to `CCCC(CCC)(c1ccc(O)c(C)c1)c1ccc(OCCN(C)C)c(C)c1`, the EC50 entry on Estrogen receptor [5] is on record as “Not Active”. The pIC50 was 7.28 against Estrogen receptor [2] and 7.44 at Estrogen receptor [3].
For `CCCC(CCC)(c1ccc(O)c(C)c1)c1ccc(OCC(=O)OC(C)C)c(C)c1`, the pEC50 on Estrogen receptor [1] is 6.94. In addition, the pIC50 is 7.05 on Estrogen receptor [2] and 7.00 at Estrogen receptor [3].
As to `CCCC(CCC)(c1ccc(O)c(C)c1)c1ccc(N(C)C)c(C)c1`, the pEC50 at Estrogen receptor [4] was 7.70; on Estrogen receptor [1], 7.10. Further, the pIC50 at Estrogen receptor [2] is 7.11; against Estrogen receptor [3], 6.67.
In turn, `CCCC(CCC)(c1ccc(O)c(C)c1)c1ccc(NC)c(C)c1` had a pEC50 on Estrogen receptor [1] of 6.26. Further, the pIC50 against Estrogen receptor [2] is 8.12; against Estrogen receptor [3], 6.68.
Compound `CCCC(CCC)(c1ccc(O)c(C)c1)c1ccc(OCC(=O)N(C)C)c(C)c1` showed a pEC50 at Estrogen receptor [1] of 6.69. Further, the pIC50 is 7.00 at Estrogen receptor [2] and 7.03 on Estrogen receptor [3].
Regarding `CCCC(CCC)(c1ccc(N)c(C)c1)c1ccc(O)c(C)c1`, the pEC50 is 8.89 on Estrogen receptor [4] and 8.05 on Estrogen receptor [1]. Further, the pIC50 at Estrogen receptor [2] was 8.77; at Estrogen receptor [3], 8.09.
At Estrogen receptor [1], `CCCC(CCC)(c1ccc(O)c(C)c1)c1ccc(OCCC(C)C)c(C)c1` had a pEC50 of 6.37. The figures for the pIC50 against Estrogen receptor [2] and against Estrogen receptor [3] were 6.80 and 5.92, respectively.
Taken in the same sequence, the figures for `CCCC(CCC)(c1ccc(O)c(C)c1)c1ccc(OCC(=O)NC)c(C)c1` were 6.98, 7.37 and 7.51.
On Estrogen receptor [1], `CCCC(CCC)(c1ccc(O)c(C)c1)c1ccc(OCC(=O)OCC)c(C)c1` gave a negative logarithm of the EC50 (pEC50) of 7.03. In addition, the pIC50 against Estrogen receptor [2] was 7.66; at Estrogen receptor [3], 7.36.
As to `CCCC(CCC)(c1ccc(O)c(C)c1)c1ccc(NC(C)=O)c(C)c1`, the pEC50 on Estrogen receptor [1] was less than 5.00. The results for the pIC50 at Estrogen receptor [2] and against Estrogen receptor [3] were 6.45 and 6.67, respectively.
On to `CCCC(CCC)(c1ccc(O)c(C)c1)c1ccc(/C=C/C(=O)O)c(C)c1`, for which the pEC50 at Estrogen receptor [1] was 6.36. The pIC50 on Estrogen receptor [2] is 7.43; at Estrogen receptor [3], 6.28.
As for `CCCC(CCC)(c1ccc(O)c(C)c1)c1ccc(/C=C/C(=O)OCC)c(C)c1`, the pEC50 on Estrogen receptor [1] was 6.71. Also, the negative-log IC50 (pIC50) is 6.52 against Estrogen receptor [2] and 6.25 against Estrogen receptor [3].
